Measured values published in patent US12447156B2, “Treating progressive familial intrahepatic cholestasis (PFIC) with IBAT inhibitors” (ALBIREO AB, priority 2020, dated 2025).
Values joined by “and” are separate entries in the source; they are usually repeats but may differ in a detail not shown here. Identical values can stand only once.

Tested on: children with PFIC1 or PFIC2
Assay: PEDFIC 1 phase 3 randomized, double-blind, placebo-controlled trial: efficacy (pruritus, serum bile acids, hepatic parameters, growth, sleep)
Assay type: in vivo, human
Settings: for Proportion of Positive Pruritus Assessments Over the Treatment Period, Mean (SE) / Proportion of Positive Pruritus Assessments, Mean Difference vs Placebo (least squares means): 24 weeks; for least squares mean treatment difference vs placebo in proportion of positive pruritus assessments / least square mean proportion of positive pruritus assessments at the patient level: over 24 weeks; for least square mean proportion of positive pruritus assessments at the patient level: ObsRO
Experimental: Odevixibat is an orally administered, potent, luminally restricted, selective IBAT inhibitor in development to treat cholestatic liver diseases. In this phase 3, randomized, 24-week trial (PEDFIC 1), the efficacy and safety of odevixibat versus placebo was evaluated in children with PFIC1 or PFIC2. The efficacy of odevixibat in patients with PFIC was evaluated a 24-week, randomized, double-blind, placebo-controlled trial conducted in 62 patients with a confirmed diagnosis of PFIC Type 1 or Type 2 (NCT03566238; European Union (EU), 2017-002338-21; PEDFIC1; FIG. 1). Patients were randomized 1:1:1 to placebo, or 40 or 120 μg/kg odevixibat and stratified by PFIC Type (1 or 2) and age (6 months to 5 years, 6 to 12 years, and 13 to ≤18 years). Patients with pathologic variations of the ABCB11 gene that predict complete absence of the bile salt export pump (BSEP) protein and those with alanine aminotransferase (ALT)>10×ULN or bilirubin>5×ULN were excluded from the study.
The study consisted of a screening phase and parallel-design treatment period (FIG. 1). Two screening visits occurred: the first took place during days −56 to −35 prior to the first dose of study drug and the second occurred during days −28 to −7. On day 0, all eligible patients were randomized 1:1:1 to oral, once-daily placebo, 40 μg/kg/day odevixibat, or 120 μg/kg/day odevixibat. After written informed consent was obtained, an 8-digit patient identification number was assigned by the Interactive Web Response System (IWRS). The first two digits denoted country, followed by a 3-digit site number, and a 3-digit patient sequence number. The randomization codes were computer generated by a biostatistician at ICON Clinical Research Ltd (Dublin, Ireland) and kept by an unblinded statistician at Firma Clinical Research (Chicago, IL, USA), independent from the project team. Patients deemed eligible for randomization were assigned a unique 4 digit randomization number by the IWRS that identified which treatment was allocated to the patient. Randomization was done in a block size of six and stratified according to PFIC type 1 or 2 and age group (6 months to 5 years, 6 to 12 years, and 13 to ≤18 years) to ensure approximate balance between dose schemes (1:1:1). A separate randomization list was prepared for the patients who had taken part in study A4250-003, regardless of stratification. Randomization codes were assigned sequentially as patients became eligible for randomization. The IWRS system assigned a study drug number(s) corresponding to the randomization arm at each dispensing visit. A 5-digit study drug number identified study drug packs and was detailed on the study drug label.
Treatment was dispensed during on-site clinic visits, and patients or caregivers were instructed to take or administer the study drug at home each morning, either as an intact capsule(s) (swallowed with a glass of water and with food) or sprinkled on soft, room-temperature food (e.g., applesauce, followed by water). The double-blind PEDFIC 1 treatment period lasted 24 weeks.
Children (aged 0.5 to 18 years) with genetic confirmation of biallelic pathogenic mutations in the ATP8B1 (i.e., PFIC1) or ABCB11 genes (i.e., PFIC2), elevated serum bile acids (≥100 μmol/L), history of significant pruritus, and an average caregiver-reported observed scratching score ≥2 (calculated from daily electronic diary [eDiary] entries) in the 14 days prior to randomization, were eligible for inclusion. Additionally, caregivers or age-appropriate patients (≥8 years of age) agreed to use the eDiary device to record symptoms. Patients with two mutations in ABCB11 predicting a complete absence of functional bile salt export pump protein were excluded.
Two different primary endpoints were evaluated. The first primary endpoint in this study was the proportion of positive pruritus assessments at the patient level over the 24-week treatment period based on an observer-reported outcome (ObsRO) instrument. […]

CCCCC1(CCCC)CN(c2ccccc2)c2cc(SC)c(OCC(=O)N[C@@H](C(=O)N[C@@H](CC)C(=O)O)c3ccc(O)cc3)cc2S(=O)(=O)N1 [Odevixibat, 1,1-dioxo-3,3-dibutyl-5-phenyl-7-methylthio-8-(N-{(R)-α-[N-((S)-1-carboxypropyl)carbamoyl]-4-hydroxybenzyl}carbamoylmethoxy)-2,3,4,5-tetrahydro-1,2,5-benzothiadiazepine]
Patients with Reduction in Serum Bile Acids, % Difference vs Placebo (PEDFIC 1, 40 μg/kg/day): 44.1% | mean percentage difference vs placebo in patients who met the serum bile acid reduction endpoint (PEDFIC 1, 40 μg/kg/day): 44.1% | Proportion of Positive Pruritus Assessments Over the Treatment Period, Mean (SE) (PEDFIC 1, 40 μg/kg/day (n = 23)): 58.31 (6.205) | Proportion of Positive Pruritus Assessments, Mean Difference vs Placebo (least squares means) (PEDFIC 1, 40 μg/kg/day): 28.23 (9.182) | Autotaxin, change from baseline to week 24, mean (PEDFIC 1, 40 μg/kg/day, n 14): -1698 ng/mL | APRI, change from baseline to week 24, mean (PEDFIC 1, 40 μg/kg/day, n 15): −0.1 | C4 (7alpha-hydroxy-4-cholesten-3-one), change from baseline to week 24, mean (PEDFIC 1, 40 μg/kg/day, n 15): 15.7 ng/mL | FIB-4, change from baseline to week 24, mean (PEDFIC 1, 40 μg/kg/day, n 15): 0.0 | PELD/MELD, change from baseline to week 24, mean (PEDFIC 1, 40 μg/kg/day, n 15): −2.4 | GGT, change from baseline to week 24, mean (SE) (PEDFIC 1, 40 μg/kg/day, n 17): −3 (2) U/L | Serum AST, change from baseline to week 24, mean (PEDFIC 1, 40 μg/kg/day, n 17): −37 U/L | Total bilirubin, change from baseline to week 24, mean (PEDFIC 1, 40 μg/kg/day, n 17): -1.4 mg/dL | Proportion of Patients with Reduction in Serum Bile Acids at End of Treatment (PEDFIC 1, 40 μg/kg/day, n = 23): 10 (43.5) n (%) | least squares mean treatment difference vs placebo in proportion of positive pruritus assessments (PEDFIC 1, 40 μg/kg/day): 28.2% | least square mean proportion of positive pruritus assessments at the patient level (PEDFIC 1, 40 μg/kg/day): 58% | proportion of patients achieving a serum bile acid response (≥70% reduction or ≤70 μmol/L) (PEDFIC 1, 40 μg/kg/day, week 24): 44% | mean (SE) change from baseline to end of treatment in height z-score (PEDFIC 1, 40 μg/kg/day, placebo 0.10 (0.102)): 0.29 (0.106) | mean (SE) change from baseline to end of treatment in ALT (PEDFIC 1, 40 μg/kg/day, placebo 3.7 (4.95)): −27.9 (17.97) U/L | mean change from baseline to end of treatment in percentage of days sleeping with the caregiver (PEDFIC 1, 40 μg/kg/day, placebo −5.5%): −49.4% | mean change from baseline to end of treatment in percentage of days requiring soothing (PEDFIC 1, 40 μg/kg/day, placebo −7.6%): −51.5% | Patients with Reduction in Serum Bile Acids, % Difference vs Placebo (PEDFIC 1, 120 μg/kg/day): 21.6% | mean (SE) change from baseline to end of treatment in ALT (PEDFIC 1, 120 μg/kg/day): −25.3 (22.47) U/L | mean (SE) change from baseline to end of treatment in height z-score (PEDFIC 1, 120 μg/kg/day): 0.15 (0.124) | mean change from baseline to end of treatment in percentage of days requiring soothing (PEDFIC 1, 120 μg/kg/day): −34.9% | mean change from baseline to end of treatment in percentage of days sleeping with the caregiver (PEDFIC 1, 120 μg/kg/day): −33.1% | mean percentage difference vs placebo in patients who met the serum bile acid reduction endpoint (PEDFIC 1, 120 μg/kg/day): 21.6% | Proportion of Positive Pruritus Assessments Over the Treatment Period, Mean (SE) (PEDFIC 1, 120 μg/kg/day (n = 19)): 47.69 (8.110) | Proportion of Positive Pruritus Assessments, Mean Difference vs Placebo (least squares means) (PEDFIC 1, 120 μg/kg/day): 21.71 (9.892) | APRI, change from baseline to week 24, mean (PEDFIC 1, 120 μg/kg/day, n 8): 0.0 | FIB-4, change from baseline to week 24, mean (PEDFIC 1, 120 μg/kg/day, n 8): 0.1 | Autotaxin, change from baseline to week 24, mean (PEDFIC 1, 120 μg/kg/day, n 12): -1018 ng/mL | C4 (7alpha-hydroxy-4-cholesten-3-one), change from baseline to week 24, mean (PEDFIC 1, 120 μg/kg/day, n 12): 15.8 ng/mL | PELD/MELD, change from baseline to week 24, mean (PEDFIC 1, 120 μg/kg/day, n 14): −1.1 | GGT, change from baseline to week 24, mean (SE) (PEDFIC 1, 120 μg/kg/day, n 15): −1 (1) U/L | Serum AST, change from baseline to week 24, mean (PEDFIC 1, 120 μg/kg/day, n 15): −27 U/L | Total bilirubin, change from baseline to week 24, mean (PEDFIC 1, 120 μg/kg/day, n 15): -1.1 mg/dL | Proportion of Patients with Reduction in Serum Bile Acids at End of Treatment (PEDFIC 1, 120 μg/kg/day, n = 19): 4 (21.1) n (%) | least squares mean treatment difference vs placebo in proportion of positive pruritus assessments (PEDFIC 1, 120 μg/kg/day): 21.7% | least square mean proportion of positive pruritus assessments at the patient level (PEDFIC 1, 120 μg/kg/day): 52% | proportion of patients achieving a serum bile acid response (≥70% reduction or ≤70 μmol/L) (PEDFIC 1, 120 μg/kg/day, week 24): 21% | percentage of days seeing blood due to scratching, number of awakenings, percentage of days taking medications to induce sleep: odevixibat vs placebo (PEDFIC 1, 24 weeks): no clear differences | reduction of autotaxin levels (PEDFIC 1, 24 weeks of treatment): approximately half | Patients with Reduction in Serum Bile Acids, % Difference vs Placebo (PEDFIC 1, Total odevixibat): 30.7% | Proportion of Positive Pruritus Assessments Over the Treatment Period, Mean (SE) (PEDFIC 1, Total odevixibat (N = 42), placebo 28.74 (5.209)): 53.51 (5.006) | Proportion of Patients with Reduction in Serum Bile Acids at End of Treatment (PEDFIC 1, Total odevixibat (N = 42), placebo 0): 14 (33.3) n (%) | Proportion of Positive Pruritus Assessments, Mean Difference vs Placebo (least squares means) (PEDFIC 1, Total odevixibat): 24.97 (8.240) | patients undergoing surgical interruption of the enterohepatic circulation or liver transplantation (PEDFIC 1, all 62 patients, during the study): None | mean (SE) change from baseline in ObsRO pruritus score (mean monthly) (PEDFIC 1, all doses, baseline to weeks 21 through 24, placebo −0.25 (0.2)): −1.11 (0.2) | APRI, change from baseline to week 24, mean (PEDFIC 1, all doses, n 23): −0.1 | FIB-4, change from baseline to week 24, mean (PEDFIC 1, all doses, n 23): 0.0 | Autotaxin, change from baseline to week 24, mean (PEDFIC 1, all doses, n 26): -1384 ng/mL | C4 (7alpha-hydroxy-4-cholesten-3-one), change from baseline to week 24, mean (PEDFIC 1, all doses, n 27): 15.7 ng/mL | PELD/MELD, change from baseline to week 24, mean (PEDFIC 1, all doses, n 29): −1.8 | GGT, change from baseline to week 24, mean (SE) (PEDFIC 1, all doses, n 32): −2 (1) U/L | Serum AST, change from baseline to week 24, mean (PEDFIC 1, all doses, n 32): −32 U/L | Total bilirubin, change from baseline to week 24, mean (PEDFIC 1, all doses, n 32): -1.3 mg/dL | least square mean proportion of positive pruritus assessments at the patient level (PEDFIC 1, all doses, placebo 30%): 55% and 55.1% | proportion of patients achieving a serum bile acid response (≥70% reduction or ≤70 μmol/L) (PEDFIC 1, all doses, week 24, placebo 0): 33% and 33.3% | mean (SE) change in serum ALT (PEDFIC 1, all doses, week 24, placebo 3.7 (5.0)): −26.7 (14.0) U/L | proportion of patients with clinically meaningful change in pruritus (≥1-point decrease, mean monthly score) (PEDFIC 1, all doses, week 24, placebo 11%): 43% | mean change in serum bile acid levels (PEDFIC 1, all doses, weeks 22 through 24 / end of treatment, placebo +13.1): -114.3 µmol/L | mean pruritus score change from baseline to end of treatment (PEDFIC 1, all doses, placebo −0.25, scale 0-4): −1.13 | mean change in daytime tiredness score (0-4) (PEDFIC 1, odevixibat overall, baseline to weeks 21 to 24, placebo −0.49): −0.99 | mean change from baseline in percentage of days needing help falling asleep (PEDFIC 1, odevixibat overall, weeks 21 to 24, placebo −3%): −43% | mean change from baseline in percentage of days sleeping with the caregiver (PEDFIC 1, odevixibat overall, weeks 21 to 24, placebo −6%): −42% | mean change from baseline in percentage of days with soothing (PEDFIC 1, odevixibat overall, weeks 21 to 24, placebo −8%): −44% | mean (SE) change from baseline to week 24 in weight Z-score (PEDFIC 1, patients treated with odevixibat, placebo 0.1 (0.1)): 0.2 (0.1) | mean (SE) change from baseline to week 24 in height Z-score (PEDFIC 1, patients treated with odevixibat, placebo −0.2 (0.1)): 0.0 (0.1) | proportion of patients who met serum bile acid response criteria (PEDFIC 1, patients with PFIC1, week 24): 17% | proportion of patients who met serum bile acid response criteria (PEDFIC 1, patients with PFIC2, week 24): 40%
